{"source": "paper PMC6441926", "about": "(Molecular Oncology, 2019)", "key": {"[1]": {"tested_on": "H1975 cells", "experiment": "CCK-8 cell viability assay, H1975", "type": "cell-based", "conditions": "Homo sapiens, NCI-H1975; CCK-8, 48 h, EGFR L858R/T790M", "method": "(§1) Cell proliferation was measured by Cell Counting Kit‐8 (CCK‐8) assay (Bestbio, Shanghai, China). Cells were cultured in 96‐well plates at a concentration of 7 × 10^3/well for 24 h. If necessary, cells were pretreated with 25 or 50 μM of Z‐VAD‐FMK for 4 h. Then cells were treated with indicated concentrations of compounds for 48 h. Supernatant was totally removed and 100 μL of CCK‐8 solution was added to each well and cultured for another 2 h at 37 °C. Cell viability was quantified using a SpectraMax M2e (Molecular Devices, San Jose, CA, USA) at 450 nm. Cell viability was calculated for each well as (absorbance 450 nm of treated cells/absorbance 450 nm of control cells) × 100%. Assays were performed on three independent experiments."}, "[2]": {"tested_on": "Mcl-1", "experiment": "Western blot of Mcl-1 protein level in A549 cells", "type": "cell-based", "conditions": "8 h", "experimental": "After treated with different concentrations of compounds, total proteins were extracted using RIPA lysing buffer. […] The membranes were blocked with 5% non‐fat milk at room temperature for 1 h, and then incubated with primary antibodies overnight at 4 °C. After washing with Tris buffered saline with Tween 20 (TBST), membranes were incubated with secondary antibodies at room temperature for another 1 h. The protein bands were visualized by adding ECL system WBKLS0050 (EMD Millipore, Billerica, MA, USA) and analyzed using Bio‐Rad Laboratories Quantity One software (Bio‐Rad)."}, "[3]": {"tested_on": "A549 cells", "experiment": "CCK-8 cell viability assay, A549", "type": "cell-based", "conditions": "for IC50: Homo sapiens, A549, CCK-8, 48 h, EGFR wild-type", "method": "as §1, with “Then cells were treated with indicated concentrations of compounds for 48 h.” left out"}, "[4]": {"tested_on": "primary lung cancer cells", "experiment": "Collagen gel droplet embedded 3D-culture (CD-DST) of primary lung cancer cells", "type": "cell-based", "conditions": "Homo sapiens; 15 primary lung cancer samples, 4 μM for 24 h, then cultured another 5 days, neutral red; read-out: viable cell percentage", "method": "Collagen gel droplet embedded 3D‐culture system (CD‐DST) system was performed using a Tumor chemo‐sensitivity assay kit provided by Guangzhou Darui Biotechnology Co., Ltd (Guangzhou, China) (Hou et al., 2017). Briefly, 0.1–0.5 g freshly dissected human lung cancer tissues were digested by trypsin and incubated in collagen gel‐coated flasks. Then, cells were collected and incubated in a collagen gel droplet at the density of 4000 cells per droplet (the volume of each droplet was 30 μL). […] Cells were visualized by neutral red stain and observed using cell analysis system DR6690 (Guangzhou Darui Biotechnology Co., Ltd). Survival rates were calculated as (absorbance 540 nm of treatment group/absorbance 540 nm of control group) × 100%.\nTable S2. Cell viability of 15 primary lung cancer cells after treatment with 4 μM of compounds for 24 h, and cultured for another 120 h before neutral red stain and fixation. Cell viability was calculated observed using specific cell analysis system DR6690 (Guangzhou Darui Biotechnology Co., Ltd, Guangzhou, China). Survival rates were calculated as (O.D. 540nm treatment group/O.D. 540nm control group) × 100%."}, "[5]": {"molecular_target": "T1, EGFR (Homo sapiens, UniProt P00533)", "T1 sequence (P00533 25-1210)": "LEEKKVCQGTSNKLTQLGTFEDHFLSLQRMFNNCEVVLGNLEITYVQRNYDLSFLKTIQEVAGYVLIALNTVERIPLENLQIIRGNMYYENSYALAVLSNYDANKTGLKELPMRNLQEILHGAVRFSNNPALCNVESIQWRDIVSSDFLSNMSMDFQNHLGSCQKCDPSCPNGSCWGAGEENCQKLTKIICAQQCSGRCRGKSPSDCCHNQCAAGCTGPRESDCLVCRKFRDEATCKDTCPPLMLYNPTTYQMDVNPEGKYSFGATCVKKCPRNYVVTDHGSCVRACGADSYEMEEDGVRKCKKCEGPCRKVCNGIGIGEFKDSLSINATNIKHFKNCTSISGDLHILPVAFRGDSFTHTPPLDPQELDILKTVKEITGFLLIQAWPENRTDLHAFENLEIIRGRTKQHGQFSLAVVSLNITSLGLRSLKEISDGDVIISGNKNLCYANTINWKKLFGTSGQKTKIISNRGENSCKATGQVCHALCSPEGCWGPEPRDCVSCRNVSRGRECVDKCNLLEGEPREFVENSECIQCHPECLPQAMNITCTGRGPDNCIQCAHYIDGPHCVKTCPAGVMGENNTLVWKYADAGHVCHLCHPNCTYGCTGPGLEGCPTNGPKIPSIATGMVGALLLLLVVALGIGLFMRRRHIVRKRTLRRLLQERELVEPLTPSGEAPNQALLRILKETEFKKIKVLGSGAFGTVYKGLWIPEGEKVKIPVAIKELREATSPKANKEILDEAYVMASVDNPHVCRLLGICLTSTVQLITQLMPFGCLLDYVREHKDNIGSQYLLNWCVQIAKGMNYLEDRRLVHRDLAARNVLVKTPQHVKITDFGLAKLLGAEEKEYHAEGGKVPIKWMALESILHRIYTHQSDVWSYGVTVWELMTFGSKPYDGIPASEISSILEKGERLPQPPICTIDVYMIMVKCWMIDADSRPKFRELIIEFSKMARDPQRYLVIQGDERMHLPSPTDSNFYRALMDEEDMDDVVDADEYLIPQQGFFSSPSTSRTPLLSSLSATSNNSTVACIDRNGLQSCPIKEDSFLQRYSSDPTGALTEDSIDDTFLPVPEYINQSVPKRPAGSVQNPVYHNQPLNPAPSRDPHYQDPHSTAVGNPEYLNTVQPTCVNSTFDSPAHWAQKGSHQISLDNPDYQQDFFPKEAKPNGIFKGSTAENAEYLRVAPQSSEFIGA", "experiment": "Kinase inhibition ELISA, EGFR", "type": "biochemical", "conditions": "ELISA kinase assay", "source_text": "(§2) ELISA was used to determine the inhibitory effect of Ibr‐7 on five kinases after molecular modification. […] Since p‐S6 is the downstream functional factor that controls the translational process, we attempted to determine the role of p‐S6 in the Ibr‐7 antitumor effect."}, "[6]": {"tested_on": "PC-9 cells", "experiment": "CCK-8 cell viability assay, PC-9", "type": "cell-based", "conditions": "Homo sapiens, CCK-8, 48 h, EGFR exon 19 deletion", "method": "as §1"}, "[7]": {"molecular_target": "mTOR (Homo sapiens, UniProt P42345)", "experiment": "Kinase inhibition ELISA, mTOR", "type": "biochemical", "conditions": "ELISA kinase assay", "source_text": "as §2"}, "[8]": {"tested_on": "EIF2S2", "experiment": "SILAC phosphoproteomics in A549 cells, EIF2S2", "type": "cell-based", "conditions": "8 μM, 8 h, treated versus untreated", "method": "(§3) A549 cells were cultured in F12 and supplemented with either (U‐12C6)‐L‐lysine (light) or (U‐13C6)‐L‐lysine (heavy) for at least eight generations. The heavy labeling efficiency was measured by mass spectrometer analysis. Cells were continuously maintained in SILAC medium until they reached the desired confluence. Cells were treated with 8 μM of Ibr‐7 for 8 h, and then harvested by trypsinization. The enriched fractions were analyzed by mass spectrometry."}, "[9]": {"molecular_target": "PI3Ka (Homo sapiens, UniProt P42336)", "sequence (P42336 whole entry)": "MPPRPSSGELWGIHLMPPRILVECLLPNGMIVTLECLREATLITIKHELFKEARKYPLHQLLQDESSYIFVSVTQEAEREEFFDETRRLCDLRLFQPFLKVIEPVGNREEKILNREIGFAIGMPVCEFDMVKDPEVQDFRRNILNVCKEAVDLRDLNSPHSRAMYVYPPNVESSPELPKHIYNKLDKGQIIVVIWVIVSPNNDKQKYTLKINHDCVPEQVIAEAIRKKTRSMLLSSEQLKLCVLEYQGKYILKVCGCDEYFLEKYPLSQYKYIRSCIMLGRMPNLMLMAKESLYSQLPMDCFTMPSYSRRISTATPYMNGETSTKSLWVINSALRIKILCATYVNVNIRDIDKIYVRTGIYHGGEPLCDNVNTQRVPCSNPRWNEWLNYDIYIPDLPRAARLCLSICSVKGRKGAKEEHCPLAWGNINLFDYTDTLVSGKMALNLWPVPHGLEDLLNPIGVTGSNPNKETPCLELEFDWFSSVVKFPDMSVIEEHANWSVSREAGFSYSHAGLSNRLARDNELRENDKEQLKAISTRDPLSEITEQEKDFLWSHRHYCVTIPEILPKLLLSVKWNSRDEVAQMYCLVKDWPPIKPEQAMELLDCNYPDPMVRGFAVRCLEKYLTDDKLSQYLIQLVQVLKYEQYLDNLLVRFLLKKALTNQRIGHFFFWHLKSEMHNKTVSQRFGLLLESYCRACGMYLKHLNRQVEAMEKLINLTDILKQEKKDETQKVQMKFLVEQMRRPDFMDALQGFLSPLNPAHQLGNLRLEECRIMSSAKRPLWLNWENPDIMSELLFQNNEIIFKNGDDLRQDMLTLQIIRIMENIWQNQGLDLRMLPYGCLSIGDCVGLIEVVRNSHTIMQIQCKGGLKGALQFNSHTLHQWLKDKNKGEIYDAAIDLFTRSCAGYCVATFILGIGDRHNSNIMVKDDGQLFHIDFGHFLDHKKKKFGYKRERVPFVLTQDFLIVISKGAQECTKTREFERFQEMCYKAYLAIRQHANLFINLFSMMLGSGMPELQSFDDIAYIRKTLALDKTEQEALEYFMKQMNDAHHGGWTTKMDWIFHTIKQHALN", "sequence (P27986 whole entry partner)": "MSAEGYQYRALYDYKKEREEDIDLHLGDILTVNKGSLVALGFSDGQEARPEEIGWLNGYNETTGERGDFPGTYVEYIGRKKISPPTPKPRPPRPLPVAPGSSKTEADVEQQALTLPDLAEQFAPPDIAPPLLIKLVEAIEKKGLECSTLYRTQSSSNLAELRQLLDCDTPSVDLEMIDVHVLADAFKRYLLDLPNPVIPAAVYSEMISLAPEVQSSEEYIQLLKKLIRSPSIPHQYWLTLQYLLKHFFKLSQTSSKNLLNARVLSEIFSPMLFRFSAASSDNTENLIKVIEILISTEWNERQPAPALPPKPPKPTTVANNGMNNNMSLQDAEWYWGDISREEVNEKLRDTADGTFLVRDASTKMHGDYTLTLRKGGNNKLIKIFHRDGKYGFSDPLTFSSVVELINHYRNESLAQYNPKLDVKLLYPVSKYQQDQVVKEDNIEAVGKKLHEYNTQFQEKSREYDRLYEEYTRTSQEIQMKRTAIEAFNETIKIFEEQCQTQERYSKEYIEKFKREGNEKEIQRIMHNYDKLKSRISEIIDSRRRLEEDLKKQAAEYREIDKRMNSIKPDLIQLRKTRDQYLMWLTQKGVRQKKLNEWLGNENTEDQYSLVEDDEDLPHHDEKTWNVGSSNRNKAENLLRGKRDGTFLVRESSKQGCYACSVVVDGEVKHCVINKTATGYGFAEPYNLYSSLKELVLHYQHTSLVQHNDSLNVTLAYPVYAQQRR", "experiment": "Kinase inhibition ELISA, PI3Ka", "type": "biochemical", "conditions": "ELISA kinase assay", "source_text": "as §2"}, "[10]": {"tested_on": "A549 xenograft", "experiment": "A549 tumor xenograft assay", "type": "in vivo", "conditions": "A549 xenograft nude mice, 60 mg·kg^−1 intragastric twice per day", "method": "All animal experiments were conducted according to the Institutional Animal Care and Use Committee (IACUC). A total of 5 × 10^6 A549 cells was resuspended in 200 μL PBS and injected subcutaneously into each 4‐week‐old female nude mice. Once the tumor volume had reached 100–200 mm^3, six mice were randomized into each group. […] Then, 2.375 mL of 20% HP‐beta‐cyclodextrin was added to the above mixture to make a final concentration of 6 mg·mL^−1. […] Tumor volumes were determined from caliper measurements of tumor length (L) and width (W) according to the formula (L × W^2)/2. The relative tumor volume (RTV) was calculated using the following formula: RTV = (tumor volume on measured day)/(tumor volume on day 0)."}, "[11]": {"molecular_target": "AKT1 (Homo sapiens, UniProt P31749)", "sequence (P31749 whole entry)": "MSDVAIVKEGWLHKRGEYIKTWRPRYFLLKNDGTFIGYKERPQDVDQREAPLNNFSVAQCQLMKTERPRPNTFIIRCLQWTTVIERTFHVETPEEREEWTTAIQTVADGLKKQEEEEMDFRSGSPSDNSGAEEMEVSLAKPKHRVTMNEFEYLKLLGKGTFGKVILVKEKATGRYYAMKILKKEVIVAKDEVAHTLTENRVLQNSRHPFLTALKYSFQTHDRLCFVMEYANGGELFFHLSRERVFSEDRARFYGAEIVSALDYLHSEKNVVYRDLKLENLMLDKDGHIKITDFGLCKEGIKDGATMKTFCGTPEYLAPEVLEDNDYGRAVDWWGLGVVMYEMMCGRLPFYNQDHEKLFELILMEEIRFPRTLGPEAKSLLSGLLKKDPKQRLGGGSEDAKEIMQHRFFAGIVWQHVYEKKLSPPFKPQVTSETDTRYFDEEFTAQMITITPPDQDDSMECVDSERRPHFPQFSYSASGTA", "experiment": "Kinase inhibition ELISA, AKT1", "type": "biochemical", "conditions": "ELISA kinase assay", "source_text": "as §2"}, "[12]": {"tested_on": "RPS6KA1", "experiment": "SILAC phosphoproteomics in A549 cells, RPS6KA1", "type": "cell-based", "conditions": "8 μM, 8 h, treated versus untreated", "method": "as §3"}, "[13]": {"molecular_target": "T1, EGFR", "experiment": "SILAC phosphoproteomics in A549 cells, EGFR", "type": "cell-based", "conditions": "8 μM, 8 h, treated versus untreated", "method": "as §3"}, "[14]": {"tested_on": "RPS6", "experiment": "SILAC phosphoproteomics in A549 cells, RPS6", "type": "cell-based", "conditions": "8 μM, 8 h, treated versus untreated", "method": "as §3"}, "[15]": {"experiment": "Pharmacokinetics in SD rat", "type": "in vivo", "conditions": "po, intragastric 30 mg/kg", "method": "Table S3. PK parameters of Ibr-7 in SD rat (i.g 30 mg/kg). Ibr-7 was orally administrated at the dose of 30 mg/kg. At each time point, 0.1 ml of rat blood was gained through retro-orbital plexus and then centrifuged at 5,000 rpm, 4 ℃ for 10 min. 10 μl of sample was mixed with 100 μl of internal reference (Buspirone 50 ng/ml, terfenadine 50 ng/ml), and vortexed for 60 s. After centrifuging at 12,000 rpm for 3 min, the supernatant was collected and transferred to an equal volume of distilled water into the 96-well plate. The final injection volume was 10 μl. Samples were analyzed by LC-MS/MS (API 4000QTRAP) and data was processed by Analyst v 1.5.1."}, "[16]": {"tested_on": "H460 cells", "experiment": "CCK-8 cell viability assay, H460", "type": "cell-based", "conditions": "Homo sapiens, NCI-H460; CCK-8, 48 h, EGFR wild-type", "method": "as §1"}, "[17]": {"tested_on": "LARP1", "experiment": "SILAC phosphoproteomics in A549 cells, LARP1", "type": "cell-based", "conditions": "8 μM, 8 h, treated versus untreated", "method": "as §3"}, "[18]": {"tested_on": "mTOR", "experiment": "SILAC phosphoproteomics in A549 cells, mTOR", "type": "cell-based", "conditions": "8 μM, 8 h, treated versus untreated", "method": "as §3"}, "[19]": {"molecular_target": "p70S6K (Homo sapiens, UniProt P23443)", "sequence (P23443 whole entry)": "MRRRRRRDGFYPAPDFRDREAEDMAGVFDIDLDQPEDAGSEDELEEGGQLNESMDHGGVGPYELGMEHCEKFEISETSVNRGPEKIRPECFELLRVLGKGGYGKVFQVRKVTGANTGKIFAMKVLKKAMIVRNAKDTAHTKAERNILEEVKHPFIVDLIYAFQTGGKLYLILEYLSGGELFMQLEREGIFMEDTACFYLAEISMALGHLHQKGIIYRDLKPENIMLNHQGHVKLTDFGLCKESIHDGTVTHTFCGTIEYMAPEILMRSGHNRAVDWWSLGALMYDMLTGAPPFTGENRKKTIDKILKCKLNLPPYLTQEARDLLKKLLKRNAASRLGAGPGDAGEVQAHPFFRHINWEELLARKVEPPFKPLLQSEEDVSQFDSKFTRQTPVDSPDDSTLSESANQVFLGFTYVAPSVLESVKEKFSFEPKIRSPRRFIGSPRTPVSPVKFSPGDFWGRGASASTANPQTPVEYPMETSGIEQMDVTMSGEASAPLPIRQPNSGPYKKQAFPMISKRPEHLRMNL", "experiment": "Kinase inhibition ELISA, p70S6K", "type": "biochemical", "conditions": "ELISA kinase assay", "source_text": "as §2"}}, "note": "Residues, ends and D or L forms follow the SMILES beside them. *: point of attachment. Cbz = O=C(OCc1ccccc1)*"}
{"smiles": "CC1(C)CCC(CN2CCN(c3ccc(C(=O)NS(=O)(=O)c4ccc(NCC5CCOCC5)c([N+](=O)[O-])c4)c(Oc4cnc5[nH]ccc5c4)c3)CC2)=C(c2ccc(Cl)cc2)C1", "note": "[ABT‐199]", "values": [{"measurement": "IC50", "setting": "[1]", "value": "> 10000", "unit": "nM"}, {"measurement": "Mcl-1 band intensity", "setting": "[2]", "value": 1.30}, {"measurement": "IC50", "setting": "[3]", "value": "> 10000", "unit": "nM"}]}
{"smiles": "C=CC(=O)Nc1cc(Nc2nccc(-c3cn(C)c4ccccc34)n2)c(OC)cc1N(C)CCN(C)C", "note": "[AZD‐9291]", "values": [{"measurement": "viability at 4 µM", "setting": "[4]", "value": 57, "unit": "%"}]}
{"smiles": "C=C(Br)C(=O)N1CCCC(n2nc(-c3ccc(Oc4ccccc4)cn3)c3c(N)ncnc32)C1", "note": "(centres unmarked) [Ibr‐7]", "values": [{"measurement": "IC50", "setting": "[5]", "value": 61, "unit": "nM"}, {"measurement": "viability at 4 µM", "setting": "[4]", "value": 40.3, "unit": "%"}, {"measurement": "IC50", "setting": "[6]", "value": "1000 to 4000", "unit": "nM"}, {"measurement": "IC50", "setting": "[7]", "value": "> 1000", "unit": "nM"}, {"measurement": "Decrease fold of phosphorylated EIF2S2, position 67", "setting": "[8]", "value": 1.99, "unit": "fold"}, {"measurement": "Decrease fold of phosphorylated EIF2S2, position 111", "setting": "[8]", "value": 1.58, "unit": "fold"}, {"measurement": "IC50", "setting": "[9]", "value": "> 1000", "unit": "nM"}, {"measurement": "anti-tumor activity by relative tumor volume (RTV)", "setting": "[10]", "value": "the same anti‐tumor activity as ibrutinib"}, {"measurement": "effect on mice bodyweight", "setting": "[10]", "value": "without affecting the mice bodyweight"}, {"measurement": "IC50", "setting": "[1]", "value": "1000 to 4000", "unit": "nM"}, {"measurement": "IC50", "setting": "[11]", "value": "> 1000", "unit": "nM"}, {"measurement": "Decrease fold of phosphorylated RPS6KA1, position 359", "setting": "[12]", "value": 1.59, "unit": "fold"}, {"measurement": "Decrease fold of phosphorylated RPS6KA1, position 363", "setting": "[12]", "value": 1.54, "unit": "fold"}, {"measurement": "Decrease fold of phosphorylated EGFR, position 693", "setting": "[13]", "value": 1.76, "unit": "fold"}, {"measurement": "Decrease fold of phosphorylated EGFR, position 991", "setting": "[13]", "value": 2.03, "unit": "fold"}, {"measurement": "Decrease fold of phosphorylated RPS6, position 244", "setting": "[14]", "value": 2.17, "unit": "fold"}, {"measurement": "Cmax", "setting": "[15]", "value": 304, "unit": "ng/mL"}, {"measurement": "IC50", "setting": "[16]", "value": "1000 to 4000", "unit": "nM"}, {"measurement": "Decrease fold of phosphorylated LARP1, position 548", "setting": "[17]", "value": 1.90, "unit": "fold"}, {"measurement": "Decrease fold of phosphorylated LARP1, position 766", "setting": "[17]", "value": 4.70, "unit": "fold"}, {"measurement": "Decrease fold of phosphorylated LARP1, position 824", "setting": "[17]", "value": 2.34, "unit": "fold"}, {"measurement": "Decrease fold of phosphorylated mTOR, position 2481", "setting": "[18]", "value": 2.23, "unit": "fold"}, {"measurement": "IC50", "setting": "[19]", "value": "> 1000", "unit": "nM"}, {"measurement": "IC50", "setting": "[3]", "value": "1000 to 4000", "unit": "nM"}]}
{"smiles": "CC(C)C[C@@H](C=O)NC(=O)[C@H](CC(C)C)NC(=O)[C@H](CC(C)C)NC(=O)OCc1ccccc1", "note": "[MG‐132] (Cbz-Leu-Leu-Leu-aldehyde)", "values": [{"measurement": "cytotoxicity on A549 cells", "setting": "[3]; 10 μM, 24 h, CCK-8", "value": "no cytotoxicity effect"}]}
{"smiles": "C=CC(=O)N1CCC[C@@H](n2nc(-c3ccc(Oc4ccccc4)cc3)c3c(N)ncnc32)C1", "note": "[ibrutinib, Ibrutinib, reference compound]", "values": [{"measurement": "viability at 4 µM", "setting": "[4]", "value": 88.1, "unit": "%"}, {"measurement": "IC50", "setting": "[7]", "value": "> 1000", "unit": "nM"}, {"measurement": "IC50", "setting": "[9]", "value": "> 1000", "unit": "nM"}]}
